The record followed here is US20130085161A1, “PIPERIDINYL SUBSTITUTED 1,3-DIHYDRO-BENZOIMIDAZOL-2-YLIDENEAMINE DERIVATIVES” (NOVARTIS AG, priority 2010, published 2013).

pIC50: −log10 of the molar value.

Broadly, the pIC50 is the IC50 on a negative log10 scale, so that one unit is a factor of ten.

T1 sequence (P08069 976-1367): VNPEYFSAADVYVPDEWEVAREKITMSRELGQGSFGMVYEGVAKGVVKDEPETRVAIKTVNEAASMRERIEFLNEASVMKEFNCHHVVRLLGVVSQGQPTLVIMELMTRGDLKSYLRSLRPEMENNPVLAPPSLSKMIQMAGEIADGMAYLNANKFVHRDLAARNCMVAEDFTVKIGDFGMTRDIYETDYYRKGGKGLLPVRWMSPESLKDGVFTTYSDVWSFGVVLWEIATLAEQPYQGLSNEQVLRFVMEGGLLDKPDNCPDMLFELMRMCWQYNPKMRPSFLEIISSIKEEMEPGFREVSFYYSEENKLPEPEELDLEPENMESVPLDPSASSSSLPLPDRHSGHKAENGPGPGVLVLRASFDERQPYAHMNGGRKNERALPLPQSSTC

The test concerns the target T1, BaF3-Tel-IGF1-R (Homo sapiens, UniProt P08069).
T1 construct: the kinase domain of IGF-1R (aa 976-1367) linked by a Ser-Arg-linker; expressed in transfected cells; host or cells: BaF3 murine proB-cell lymphoma cells, stably transduced
As to the kind of experiment: BaF3 cell viability assay (resazurin), 384-well format. Format: cell-based. To be noted: 384-well plate format; 48 h incubation; resazurin dye reduction; cell proliferation/viability. The source says: BaF3-Tel-IGF1-R and BaF3-InsR are BaF3 murine proB-cell lymphoma cell derivatives [the BaF3 cell line (also termed Ba/F3) is available from the German Collection of Microorganisms and Cell Cultures (DSMZ), Braunschweig, Germany] that have been rendered IL-3-independent by stable transduction with kinase-activating fusions between human TEL (aa 1-452) and the kinase domain of IGF-1R (aa 976-1367) linked by a Ser-Arg-linker (Boulay et al, Cancer Res 68, 3743-3751, 2008), and a fusion between human TEL (aa 1-337) and the kinase domain (aa 1015-1382) of the Insulin receptor (Melnick J S et al, Proc Natl Acad Sci USA 103, 3153-3158, 2006), respectively. Cells are cultured in RPMI-1640 (Animed #1-14F01-1) supplemented with 2% L-glutamine (Animed #5-10K50-H) and 10% fetal calf serum (FCS, Animed #2-01F16-I). Wild-type, untransfected BaF3 cells are maintained in above medium plus 10 U/ml IL-3 (mouse Interleukin-3, Roche #1380745 or Invitrogen # PMC0035) and are used to identify non-selective, generally growth-inhibitory compounds. Cells (1.5×10^4 cells per well) are seeded in 190 μl fresh medium into 96-well plates. 10 μl 20× compound solutions are added. As internal control, the kinase inhibitor PKC412 is routinely used. Control cells treated with DMSO (0.1% final concentration) serve as growth reference (set as 100% growth). In addition, a plate blank value is routinely determined in a well containing only […] of medium and no cells. IC50 determinations are performed based on eight 3-fold serial dilutions of the test compound, starting at 10 μM. Following incubation of the cells for 48 h at 37° C. and 5% CO2, the effect of inhibitors on cell viability is assessed by the resazurin sodium salt dye reduction assay (commercially known as AlamarBlue assay) basically as previously described (O'Brien J. et al., Eur. J. Biochem. 267: 5421-5426, 2000). Briefly, 20 μl dye solution is added per well and the plates incubated for 6 h at 37° C. and 5% CO2. Thereafter, fluorescence is measured using a Saphirell 96-well plate reader (TECAN, Männedorf, Switzerland) with the following settings: Excitation 544 nm and Emission 590 nm. For data analysis, the plate blank value is subtracted from all data points. The effect of a particular test compound concentration on cell proliferation and viability is expressed as percentage of the blank-corrected reading obtained for cells treated with vehicle only, which is set as 100%. IC50 values can be determined using XLfit (V4.2), applying standard four parameter logistic model #205 (IDBS, Guilford, UK) or other common curve-fitting software.
To achieve a higher throughput, the cell viability assay can also be performed in a 384-well format. Briefly, 4′500 freshly diluted cells are seeded in 54 μl/well into 384-well plates using a liquid dispenser. 6 μl 10× compound solution is added to the cell plate. As internal control, the kinase inhibitor PKC412 is routinely used. Control cells treated with DMSO (0.1% final concentration) serve as growth reference (set as 100% growth). In addition, a plate blank value is routinely determined in a well containing only 60 μl of medium and no cells. Dose-response effects are determined by 3-fold serial compound dilutions, starting at 10 μM. Following incubation of the cells for 48 h at 37° C. and 5% CO2, the effect of compounds on cell proliferation/viability is assessed by addition of 6 μl resazurin sodium salt dye solution per well. Following incubation for an additional 6 hrs at 37° C. and 5% CO2, fluorescence is measured using an Infiniti M1000 microplate reader (TECAN, Männedorf, Switzerland) with excitation and emission wavelengths set at 544 and 590 nm, respectively. For data analysis, the plate blank value is subtracted from all data points. IC50 values can be determined by four parameter logistic fitting as described above.
Background: Resazurin is reduced to fluorescent resorufin, in cell work by metabolically active cells.
`CC(=O)Nc1ccccc1N1CCC(n2c(=N)n(Cc3cccc4[nH]ccc34)c3ccccc32)CC1` [Example 56.2, N-(2-{4-[2-Imino-3-(1H-indol-4-ylmethyl)-2,3-dihydro-benzoimidazol-1-yl]-piperidin-1-yl}-phenyl)-acetamide]: the negative logarithm of the IC50 (pIC50) is 7.38.

The compound `CC(=O)Nc1ccc(C)nc1N1CCC(n2c(=N)n(Cc3ccccc3Cl)c3ccc(F)cc32)CC1` [Example 78, N-{4-[3-(2-Chloro-benzyl)-6-fluoro-2-imino-2,3-dihydro-benzoimidazol-1-yl]-6′-methyl-3,4,5,6-tetrahydro-2H-[1,2′]bipyridinyl-3′-yl}-acetamide] gave a pIC50 of 7.21.

In turn, `CC(=O)Nc1ccc(Cl)cc1N1CCC(n2c(=N)n(Cc3cccc4[nH]ccc34)c3ccccc32)CC1` [Example 57] had a pIC50 of 7.82.

`CC(=O)Nc1ccc(C)nc1N1CC[C@H](n2c(=N)n(Cc3cccc4[nH]ccc34)c3ccc(F)cc32)[C@@H](O)C1` (racemic) [Example 67.3, Rac-trans-N-{4-[6-Fluoro-2-imino-3-(1H-indol-4-yl-methyl)-2,3-dihydro-benzo-imidazol-1-yl]-3-hydroxy-6′-methyl-3,4,5,6-tetrahydro-2H-[1,2′]bipyridinyl-3′-yl}-acetamide] gave a pIC50 of 6.78.

The compound `CC(=O)Nc1ccc(Cl)cc1N1CCC(n2c(=N)n(Cc3cccc4[nH]nnc34)c3ccc(F)cc32)CC1` [Example 63, N-(2-{4-[3-(1H-Benzotriazol-4-ylmethyl)-6-fluoro-2-imino-2,3-dihydro-benzoimidazol-1-yl]-piperidin-1-yl}-4-chloro-phenyl)-acetamide] gave a pIC50 of 7.66.

The compound `CC(=O)Nc1ccc(C)nc1N1CCC(n2c(=N)n(Cc3cccc4[nH]ccc34)c3ccc(F)cc32)CC1` [Example 65, N-{4-[6-Fluoro-2-imino-3-(1H-indol-4-ylmethyl)-2,3-dihydro-benzoimidazol-1-yl]-6′-methyl-3,4,5,6-tetrahydro-2H-[1,2′]bipyridinyl-3′-yl}-acetamide] had a negative logarithm of the IC50 (pIC50) of 8.30. This pIC50 lies 0.64 log units higher than the previous one.

As for `CC(=O)Nc1ccc(C#N)cc1N1CCC(n2c(=N)n(Cc3cccc4[nH]ccc34)c3ccccc32)CC1` [Example 56.4, N-(4-Cyano-2-{4-[2-imino-3-(1H-indol-4-ylmethyl)-2,3-dihydro-benzoimidazol-1-yl]-piperidin-1-yl}-phenyl)-acetamide], the pIC50 is 7.00. This pIC50 lies 1.30 log units lower than the previous one.

Take `CC(=O)Nc1ccc(Cl)nc1N1CCC(n2c(=N)n(Cc3ccccc3Cl)c3ccc(F)cc32)CC1` [Example 77, N-{6′-Chloro-4-[3-(2-chloro-benzyl)-6-fluoro-2-imino-2,3-dihydro-benzoimidazol-1-yl]-3,4,5,6-tetrahydro-2H-[1,2′]bipyridinyl-3′-yl}-acetamide]: the pIC50 was 7.17.

The compound `CC(=O)Nc1ccc(C(F)(F)F)cc1N1CCC(n2c(=N)n(Cc3ccccc3Cl)c3ccc(F)cc32)CC1` [Example 56.17, N-(2-{4-[3-(2-Chloro-benzyl)-6-fluoro-2-imino-2,3-dihydro-benzoimidazol-1-yl]-piperidin-1-yl}-4-trifluoromethyl-phenyl)-acetamide] had a negative logarithm of the IC50 (pIC50) of 7.42.

The compound `CC(=O)Nc1ccc(C(F)(F)F)cc1N1CCC(n2c(=N)n(Cc3cccc4[nH]ccc34)c3ccccc32)CC1` [Example 56.3, N-(2-{4-[2-Imino-3-(1H-indol-4-ylmethyl)-2,3-dihydro-benzoimidazol-1-yl]-piperidin-1-yl}-4-trifluoromethyl-phenyl)-acetamide] showed a negative-log IC50 (pIC50) of 7.28.

Regarding `CC(=O)Nc1ccc(C)cc1N1CCC(n2c(=N)n(Cc3ccccc3Cl)c3ccc(F)cc32)CC1` [Example 56.12, N-(2-{4-[3-(2-Chloro-benzyl)-6-fluoro-2-imino-2,3-dihydro-benzoimidazol-1-yl]-piperidin-1-yl}-4-methyl-phenyl)-acetamide], the pIC50 was 7.32. The pIC50 values of the last two compounds are within 0.2 log units of each other.

With `COc1ccc(NC(C)=O)c(N2CCC(n3c(=N)n(Cc4cccc5[nH]ccc45)c4ccccc43)CC2)c1` [Example 56.1, N-(2-{4-[2-Imino-3-(1H-indol-4-ylmethyl)-2,3-dihydro-benzoimidazol-1-yl]-piperidin-1-yl}-4-methoxy-phenyl)-acetamide], the pIC50 was 7.46.

On to `COc1ccc(NC(C)=O)c(N2CCC(n3c(=N)n(Cc4cccc5[nH]ccc45)c4ccc(F)cc43)CC2)c1` [Example 56.13, N-(2-{4-[6-Fluoro-2-imino-3-(1H-indol-4-ylmethyl)-2,3-dihydro-benzoimidazol-1-yl]-piperidin-1-yl}-4-methoxy-phenyl)-acetamide], for which the pIC50 is 8.05.

Consider `CC(=O)Nc1ccc(C(F)(F)F)cc1N1CCC(n2c(=N)n(Cc3cccc4[nH]ccc34)c3ccc(F)cc32)CC1` [Example 56.16, N-(2-{4-[6-Fluoro-2-imino-3-(1H-indol-4-ylmethyl)-2,3-dihydro-benzoimidazol-1-yl]-piperidin-1-yl}-4-trifluoromethyl-phenyl)-acetamide], for which the pIC50 was 7.41. This pIC50 is 0.64 log units lower than that of the compound before.

Regarding `CC(=O)Nc1ccc(Cl)cc1N1CCC(n2c(=N)n(Cc3ccccc3Cl)c3ccc(F)cc32)CC1` [Example 62, N-(4-Chloro-2-{4-[3-(2-chloro-benzyl)-6-fluoro-2-imino-2,3-dihydro-benzoimidazol-1-yl]-piperidin-1-yl}-phenyl)-acetamide], the negative logarithm of the IC50 (pIC50) is 7.44.

For the compound `CC(=O)Nc1ccc(Cl)cc1N1CC[C@H](n2c(=N)n(Cc3ccccc3Cl)c3ccc(F)cc32)[C@@H](O)C1` (racemic) [Example 67.1, Rac-trans-N-(4-Chloro-2-{4-[3-(2-chloro-benzyl)-6-fluoro-2-imino-2,3-dihydro-benzo-imidazol-1-yl]-3-hydroxy-piperidin-1-yl}-phenyl)-acetamide], the pIC50 was 8.00.

Consider `CC(=O)Nc1ccc(Cl)cc1N1CC[C@H](n2c(=N)n(Cc3cccc4[nH]ccc34)c3ccc(F)cc32)[C@@H](O)C1` (racemic) [Example 67, Rac-trans-N-(4-Chloro-2-{4-[6-fluoro-2-imino-3-(1H-indol-4-ylmethyl)-2,3-dihydro-benzoimidazol-1-yl]-3-hydroxy-piperidin-1-yl}-phenyl)-acetamide], for which the pIC50 is 7.64.

Regarding `CC(=O)Nc1ccc(C)cc1N1CCC(n2c(=N)n(Cc3cccc4[nH]ccc34)c3ccccc32)CC1` [Example 56, N-(2-{4-[2-Imino-3-(1H-indol-4-ylmethyl)-2,3-dihydro-benzoimidazol-1-yl]-piperidin-1-yl}-4-methyl-phenyl)acetamide], the negative logarithm of the IC50 (pIC50) is above 8.35.

With `CC(=O)Nc1ccc(C(F)(F)F)cc1N1CCC(n2c(=N)n(Cc3cccc4[nH]nnc34)c3ccccc32)CC1` [Example 56.8, N-(2-{4-[3-(1H-Benzotriazol-4-ylmethyl)-2-imino-2,3-dihydro-benzoimidazol-1-yl]-piperidin-1-yl}-4-trifluoromethyl-phenyl)-acetamide], the negative logarithm of the IC50 (pIC50) is 6.68.

`CC(=O)/N=c1\n(Cc2cccc3[nH]ccc23)c2ccccc2n1C1CCN(c2cc(C)ccc2NC(C)=O)CC1` [Example 66, N-(2-{4-[2-Acetylimino-3-(1H-indol-4-ylmethyl)-2,3-dihydro-benzoimidazol-1-yl]-piperidin-1-yl}-4-methyl-phenyl)-acetamide] had a negative logarithm of the IC50 (pIC50) of 6.74.

In turn, `CC(=O)Nc1ccc(Cl)cc1N1CC[C@H](n2c(=N)n(Cc3cccc4[nH]ccc34)c3ccccc32)[C@@H](O)C1` (racemic) [Example 67.5, Rac-trans-N-(4-Chloro-2-{3-hydroxy-4-[2-imino-3-(1H-indol-4-ylmethyl)-2,3-dihydro-benzoimidazol-1-yl]-piperidin-1-yl}-phenyl)-acetamide] showed a pIC50 of 7.52.
